Data from paper PMC4940736 (Scientific Reports, 2016).
Where “and” joins values, the source holds several entries; their conditions need not be identical. Equal entries are not always repeated.

Key:
[1] = biological target: T1, EBOV NP (amino acids 36–351) (Zaire ebolavirus, UniProt P18272); assay type: binding, Ebola virus
[2] = biological target: T2, MARV NP (amino acids 19–370) (Lake Victoria marburgvirus, UniProt P27588); assay type: binding, Marburg virus
[3] = biological target: T3, EBOV NP (Zaire ebolavirus, UniProt P18272); assay type: binding, Ebola virus
[4] = biological target: T4, MARV NP (Lake Victoria marburgvirus, UniProt P27588); assay type: binding, Marburg virus
[5] = biological target: T3, EBOV NP; assay type: binding, Ebola virus; remark: listed apart in the source
[6] = biological target: T4, MARV NP; assay type: binding, Marburg virus; remark: listed apart in the source
[7] = biological target: T1, EBOV NP (amino acids 36–351); assay type: binding, Ebola virus; remark: listed apart in the source
[8] = biological target: T2, MARV NP (amino acids 19–370); assay type: binding, Marburg virus; remark: listed apart in the source
[9] = biological target: T1, EBOV NP (amino acids 36–351); assay type: binding, Ebola virus; remark: listed apart in the source
[10] = biological target: T2, MARV NP (amino acids 19–370); assay type: binding, Marburg virus; remark: listed apart in the source
[11] = biological target: EBOV NP (residues 36–351) (Zaire ebolavirus, UniProt P18272); assay type: biochemical, Ebola virus
[12] = biological target: MARV NP (residues 19–370) (Lake Victoria marburgvirus, UniProt P27588); assay type: biochemical, Marburg virus
[13] = biological target: oligomeric EBOV NP 36–450 / ssRNA (Zaire ebolavirus, UniProt P18272); test: biochemical
[14] = biological target: the molecule itself; test: SEC
[15] = biological target: the molecule itself; test: SEC-MALS

Molecule	S/N ratio (peak intensity protein incubation sample vs control) [1]	S/N ratio (peak intensity protein incubation sample vs control) [2]	Corr response (SPR) [3] [RU]	Corr response (SPR) [4] [RU]	△Tm [5] [°C]	△Tm [6] [°C]	also measured
Liquiritin apioside [GC1]	1.37±0.28	1.85±0.35	3.1	2.0	−0.5 ± 0.2	−0.2 ± 0.3	S/N AVE [7]: 1.07; VIP [7]: 2.03; S/N AVE [8]: 1.53; VIP [8]: 5.68
O=C(/C=C/c1ccc(O)cc1)c1ccc(O)cc1O [GC11, Isoliquiritigenin]	1.11±0.16	1.08±0.04					
O=C(/C=C/c1ccc(O[C@@H]2O[C@H](CO)[C@@H](O)[C@H](O)[C@H]2O)cc1)c1ccc(O)cc1O [GC14, Isoliquiritin]	0.49±0.02	1.61±0.19					
O=c1cc(-c2ccc(O)cc2)oc2c([C@@H]3OC[C@H](O)[C@H](O)[C@H]3O)c(O)c([C@@H]3O[C@H](CO)[C@@H](O)[C@H](O)[C@H]3O)c(O)c12 [GC3, Schaftoside]	1.47±0.30	1.67±0.31	2.9	2.8	−0.6 ± 0.1	−0.4 ± 0.3	
C=CC(C)(C)c1cc(/C=C/C(=O)c2ccc(O)cc2)c(OC)cc1O [GC13, Licochalcone A]	5.61±1.11	6.54±0.52	43.8	29.2	−3.2 ± 0.3	0.7 ± 0.6	BF% (fraction of compound associated with the NP protein) [9]: 0.3% ± 0.0%; S/N [9]: 6.0 ± 1.3; BF% (fraction of compound associated with the NP protein) [10]: 0.1% ± 0.1%; S/N [10]: 11.0 ± 1.9; Monomer (%) [11]: 100%; Monomer (%) [12]: 29.0%; Oligomer(%) >1000 kDa [12]: 2.6%; Tetramer (%) [12]: 68.3%; increase of tetramer formation [12]: > 2 fold
COc1ccc(-c2coc3cc(O)ccc3c2=O)cc1O [GC9, Calycosin]	1.21±0.25	1.60±0.36					
COc1ccc(-c2coc3cc(O[C@@H]4O[C@H](CO)[C@@H](O)[C@H](O)[C@H]4O)ccc3c2=O)cc1 [GC5, Ononin]	1.34±0.31	1.18±0.43			−0.2 ± 0.3	0.0 ± 0.5	
O=C1C[C@@H](c2ccc(O)cc2)Oc2cc(O)ccc21 [GC8, Liquiritigenin]	0.96±0.22	1.28±0.18					
CC1(C)[C@@H](O[C@H]2O[C@H](C(=O)O)[C@@H](O)[C@H](O)[C@H]2O[C@@H]2O[C@H](C(=O)O)[C@@H](O)[C@H](O)[C@H]2O)CC[C@]2(C)[C@H]3C(=O)C=C4[C@@H]5C[C@@](C)(C(=O)O)CC[C@]5(C)CC[C@@]4(C)[C@]3(C)CC[C@@H]12 [GC6, Glycyrrhizin]	1.84±0.12	1.46±0.73			0.1 ± 0.2	−0.2 ± 0.3	
CC1(C)[C@@H](O)CC[C@]2(C)[C@H]3C(=O)C=C4[C@H]5C[C@@](C)(C(=O)O)CC[C@]5(C)CC[C@@]4(C)[C@]3(C)CC[C@@H]12 [GC10, 18α-Glycyrrhetinic acid]	2.62±0.46	2.79±0.34	8.8	5.2	−0.8 ± 0.4	−0.2 ± 0.3	BF% (fraction of compound associated with the NP protein) [9]: 0.1% ± 0.0%; S/N [9]: 1.2 ± 0.1; BF% (fraction of compound associated with the NP protein) [10]: 0.9% ± 0.5%; S/N [10]: 1.8 ± 0.1; Monomer (%) [11]: 64.0%; Oligomer(%) >1000 kDa [11]: 36.0%; Monomer (%) [12]: 63.3%; Oligomer(%) >1000 kDa [12]: 0.5%; Tetramer (%) [12]: 36.2%
O=C(/C=C/c1ccc(O)cc1)c1ccc(O[C@@H]2O[C@H](CO)[C@@H](O)[C@H](O)[C@H]2O)cc1O [GC4, Neoisoliquiritin]	1.46±0.29	1.59±0.41			0.1 ± 0.2	0.2 ± 0.3	
CC1(C(=O)O)CCC2(C)CCC3(C)C(=CC(=O)C4C5(C)CCC(O)C(C)(C)C5CCC43C)C2C1 (stereo not drawn) [GC7, 18β-Glycyrrhetinic acid]	2.62±0.46	2.79±0.34	128	35.8	−9.2 ± 0.4	−1.1 ± 0.1	BF% (fraction of compound associated with the NP protein) [9]: 11.0% ± 1.1%; S/N [9]: 2.7 ± 0.3; BF% (fraction of compound associated with the NP protein) [10]: 16.9% ± 4.1%; S/N [10]: 2.3 ± 0.4; decrease of the protein melting temperature [5]: 9 °C; Oligomer(%) <1000 kDa [11]: 68.7%; Monomer (%) [12]: 71.0% and 84.5%; Oligomer(%) >1000 kDa [12]: 6.2% and 6.9%; IC50 [13]: ~160 µM
O=C1C[C@@H](c2ccc(O[C@@H]3O[C@H](CO)[C@@H](O)[C@H](O)[C@H]3O)cc2)Oc2cc(O)ccc21 [GC12, Liquiritin]	1.31±0.27	1.87±0.38					
O=C1C[C@@H](c2ccc(O)cc2)Oc2cc(O[C@@H]3O[C@H](CO)[C@@H](O)[C@H](O)[C@H]3O)ccc21 [GC2, Neoliquiritin]	1.31±0.27	1.87±0.38	2.0	1.1	0.0 ± 0.0	0.2 ± 0.3	Monomer (%) [11]: 100%; Monomer (%) [12]: 66.3%; Oligomer(%) >1000 kDa [12]: 4.0%; Tetramer (%) [12]: 29.7%
Ebola virus nucleoprotein, residues 36-450 (EBOV NP 36-450) (domain or fragment) VRQRVIPVYQVNNLEEICQLIIQAFEAGVDFQESADSFLLMLCLHHAYQGDYKLFLESGAVKYLEGHGFRFEVKKRDGVKRLEELLPAVSSGKNIKRTLAAMPEEETTEANAGQFLSFASLFLPKLVVGEKACLEKVQRQIQVHAEQGLIQYPTAWQSVGHMMVIFRLMRTNFLIKFLLIHQGMHMVAGHDANDAVISNSVAQARFSGLLIVKTVLDHILQKTERGVRLHPLARTAKVKNEVNSFKAALSSLAKHGEYAPFARLLNLSGVNNLEHGLFPQLSAIALGVATAHGSTLAGVNVGEQYQQLREAATEAEKQLQQYAESRELDHLGLDDQEKKILMNFHQKKNEISFQQTNAMVTLRKERLAKLTEAITAASLPKTSGHYDDDDDIPFPGPINDDDNPGHQDDDPTDSQ							binding result [14]: binds
Marburg virus nucleoprotein core domain (MARV NP, amino acids 19-370) (domain or fragment) RNKKVILFDTNHQVSICNQIIDAINSGIDLGDLLEGGLLTLCVEHYYNSDKDKFNTSPVAKYLRDAGYEFDVIKNADATRFLDVSPNEPHYSPLILALKTLESTESQRGRIGLFLSFCSLFLPKLVVGDRASIEKALRQVTVHQEQGIVTYPNHWLTTGHMKVIFGILRSSFILKFVLIHQGVNLVTGHDAYDSIISNSVGQTRFSGLLIVKTVLEFILQKTDSGVTLHPLVRTSKVKNEVASFKQALSNLARHGEYAPFARVLNLSGINNLEHGLYPQLSAIALGVATAHGSTLAGVNVGEQYQQLREAAHDAEVKLQRRHEHQEIQAIAEDDEERKILEQFHLQKTEITH							stoichiometry N [15]: 4
